Columns and labels:
Type in all cases: cell-based
[1] = biological target: T1, wild-type Androgen Receptor (AR-wt) (Homo sapiens (Human), UniProt P10275); assay: LNCaP-AR-wt ANT reporter assay (antagonist mode); conditions: for IC50 / LNCaP-AR-wt ANT pIC50: antagonist mode, pIC50 = −Log10(IC50 in Molar); for IC50: read-out: LNCaP-AR-wt ANT pIC50 (converted); for Emax: maximum % inhibition of R1881 control response over the tested concentration range, read-out: LNCaP-AR-wt ANT MAX % Inh
[2] = biological target: T1, wild-type Androgen Receptor (AR-wt); assay: LNCaP-AR-wt AG reporter assay (agonist mode); conditions: for EC50 / LNCaP-AR-wt AG pEC50: agonist mode, pEC50 = −Log10(EC50 in Molar); for EC50: read-out: LNCaP-AR-wt AG pEC50 (converted); for Emax: maximum % stimulation (agonist response) over the tested concentration range, read-out: LNCaP-AR-wt AG MAX % Stim
[3] = biological target: T2, F876L mutant Androgen Receptor (AR-F876L) (Homo sapiens (Human), UniProt P10275, F877L); assay: LNCaP-AR-F876L ANT reporter assay (antagonist mode); conditions: for IC50 / LNCaP-AR-F876L ANT pIC50: antagonist mode, pIC50 = −Log10(IC50 in Molar); for IC50: read-out: LNCaP-AR-F876L ANT pIC50 (converted); for Emax: maximum % inhibition of R1881 control response over the tested concentration range, read-out: LNCaP-AR-F876L ANT MAX % Inh
T2 sequence (P10275 whole entry F877L): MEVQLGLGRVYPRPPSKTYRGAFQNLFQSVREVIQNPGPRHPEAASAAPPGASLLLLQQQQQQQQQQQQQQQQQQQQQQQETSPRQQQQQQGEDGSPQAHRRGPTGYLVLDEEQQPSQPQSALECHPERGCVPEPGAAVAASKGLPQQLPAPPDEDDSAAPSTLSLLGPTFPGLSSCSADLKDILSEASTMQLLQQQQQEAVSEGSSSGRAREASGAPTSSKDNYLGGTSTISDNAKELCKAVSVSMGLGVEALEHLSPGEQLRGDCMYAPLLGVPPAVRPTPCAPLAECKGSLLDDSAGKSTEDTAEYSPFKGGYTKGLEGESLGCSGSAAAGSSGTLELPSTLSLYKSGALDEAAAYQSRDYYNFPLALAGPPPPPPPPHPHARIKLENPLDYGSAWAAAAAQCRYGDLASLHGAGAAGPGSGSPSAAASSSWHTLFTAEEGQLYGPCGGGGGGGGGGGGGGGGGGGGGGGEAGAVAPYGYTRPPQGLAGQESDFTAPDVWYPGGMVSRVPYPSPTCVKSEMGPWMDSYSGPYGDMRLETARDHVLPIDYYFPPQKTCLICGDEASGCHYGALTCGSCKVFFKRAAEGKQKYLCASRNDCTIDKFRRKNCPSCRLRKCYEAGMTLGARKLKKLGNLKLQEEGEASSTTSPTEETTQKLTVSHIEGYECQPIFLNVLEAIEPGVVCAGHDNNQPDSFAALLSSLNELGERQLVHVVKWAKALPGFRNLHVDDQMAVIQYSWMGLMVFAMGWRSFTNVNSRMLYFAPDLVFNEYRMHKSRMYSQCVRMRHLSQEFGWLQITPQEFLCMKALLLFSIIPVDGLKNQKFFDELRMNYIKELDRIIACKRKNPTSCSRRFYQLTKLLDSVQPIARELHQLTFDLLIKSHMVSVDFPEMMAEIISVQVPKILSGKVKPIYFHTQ

[4] = biological target: T2, F876L mutant Androgen Receptor (AR-F876L); assay: LNCaP-AR-F876L AG reporter assay (agonist mode); conditions: for EC50 / LNCaP-AR-F876L AG pEC50: agonist mode, pEC50 = −Log10(EC50 in Molar); for EC50: read-out: LNCaP-AR-F876L AG pEC50 (converted); for Emax: maximum % stimulation (agonist response) over the tested concentration range, read-out: LNCaP-AR-F876L AG MAX % Stim

T1 sequence (P10275 whole entry): as the sequence (P10275 whole entry F877L) above, with L877F counted along it

SMILES	IC50 [1]	Emax [1]	EC50 [2]	Emax [2]	IC50 [3]	Emax [3]	EC50 [4]	Emax [4]	LNCaP-AR-wt ANT pIC50 [1]	LNCaP-AR-wt AG pEC50 [2]	LNCaP-AR-F876L ANT pIC50 [3]	LNCaP-AR-F876L AG pEC50 [4]
CC(C)(C)OC(=O)N1CCN(Cc2ccc(N3C(=S)N(c4cnc(C#N)c(C(F)(F)F)c4)C(=O)C34CCC4)cc2)CC1 [Cpd 47, tert-butyl 4-[[4-[6-[6-cyano-5-(trifluoromethyl)-3-pyridyl]-5-oxo-7-thioxo-6,8-diazaspiro[3.4]octan-8-yl]phenyl]methyl]piperazine-1-carboxylate]	316 nM	100%	> 15100 nM	0.7%	145 nM	100%	> 15100 nM	0.5%				
N#CCN1CCC(Oc2ccc(N3C(=S)N(c4cnc(C#N)c(Cl)c4)C(=O)C34CCC4)cc2)CC1 [Cpd 51, 3-chloro-5-[8-[4-[[1-(cyanomethyl)-4-piperidyl]oxy]phenyl]-5-oxo-7-thioxo-6,8-diazaspiro[3.4]octan-6-yl]pyridine-2-carbonitrile]	53.7 nM	98%	> 15100 nM	2.3%	24.5 nM	101%	> 15100 nM	1.7%				
CC(C)(C)OC(=O)N1CC(F)(F)CC1COc1ccc(N2C(=S)N(c3cnc(C#N)c(C(F)(F)F)c3)C(=O)C23CCC3)cc1 (centres unmarked) [Cpd 56, tert-butyl 2-[[4-[6-[6-cyano-5-(trifluoromethyl)-3-pyridyl]-5-oxo-7-thioxo-6,8-diazaspiro[3.4]octan-8-yl]phenoxy]methyl]-4,4-difluoro-pyrrolidine-1-carboxylate]	631 nM	84.5%	> 15100 nM	0.4%	676 nM	85.2%	> 15100 nM	0.1%				
COC(=O)C1CCC(N2C(=S)N(c3cnc(C#N)c(C(F)(F)F)c3)C(=O)C23CCC3)CC1 (centres unmarked) [Cpd 57, Methyl 4-[6-[6-cyano-5-(trifluoromethyl)-3-pyridyl]-5-oxo-7-thioxo-6,8-diazaspiro[3.4]octan-8-yl]cyclohexanecarboxylate]	490 nM	100%	> 15100 nM	0.3%	200 nM	99.1%	> 15100 nM	0.3%				
CC(C)(C)OC(=O)N1C2CCC1C(F)C(Oc1ccc(N3C(=S)N(c4cnc(C#N)c(C(F)(F)F)c4)C(=O)C34CCC4)cc1)C2 (centres unmarked) [Cpd 85, tert-butyl 3-[4-[6-[6-cyano-5-(trifluoromethyl)-3-pyridyl]-5-oxo-7-thioxo-6,8-diazaspiro[3.4]octan-8-yl]phenoxy]-4-fluoro-8-azabicyclo[3.2.1]octane-8-carboxylate]		88.3%		-0.1%		85.8%		0.6%	6.46	<4.82	6.37	<4.82
C=CCN1CCC(Oc2ccc(N3C(=S)N(c4cnc(C#N)c(Cl)c4)C(=O)C34CCC4)cn2)CC1 [Cpd 89, 5-[8-[6-[(1-allyl-4-piperidyl)oxy]-3-pyridyl]-5-oxo-7-thioxo-6,8-diazaspiro[3.4]octan-6-yl]-3-chloro-pyridine-2-carbonitrile]	67.6 nM	101%	> 15100 nM	0.2%	55 nM	98.4%	> 15100 nM	3.3%				
C=CCN1CCC(Oc2ccc(N3C(=S)N(c4cnc(C#N)c(C)c4)C(=O)C34CCC4)cn2)CC1 [Cpd 99, 5-[8-[6-[(1-allyl-4-piperidyl)oxy]-3-pyridyl]-5-oxo-7-thioxo-6,8-diazaspiro[3.4]octan-6-yl]-3-methyl-pyridine-2-carbonitrile]	174 nM	101%	> 15100 nM	0.5%	72.4 nM	99.7%	> 15100 nM	0.2%				
CC(C)(C)OC(=O)NC1C(C)(C)C(Oc2ccc(N3C(=S)N(c4cnc(C#N)c(C(F)(F)F)c4)C(=O)C34CCC4)cc2)C1(C)C (centres unmarked) [Cpd 110, tert-butyl N-[3-[4-[6-[6-cyano-5-(trifluoromethyl)-3-pyridyl]-5-oxo-7-thioxo-6,8-diazaspiro[3.4]octan-8-yl]phenoxy]-2,2,4,4-tetramethyl-cyclobutyl]carbamate]	132 nM	101%	> 15100 nM	0.3%	91.2 nM	100%	> 15100 nM	0.2%				
CC(C)(C)OC(=O)N1C2CCC1CC(c1ccc(N3C(=S)N(c4cnc(C#N)c(C(F)(F)F)c4)C(=O)C34CCC4)cc1)C2 (centres unmarked) [Cpd 113, tert-butyl 3-[4-[6-[6-cyano-5-(trifluoromethyl)-3-pyridyl]-5-oxo-7-thioxo-6,8-diazaspiro[3.4]octan-8-yl]phenyl]-8-azabicyclo[3.2.1]octane-8-carboxylate]		89%		0.3%		83.6%		1.8%	6.35	<4.82	6.26	<4.82
CN1C2CCC1CC(c1ccc(N3C(=S)N(c4cnc(C#N)c(C(F)(F)F)c4)C(=O)C34CCC4)cc1)C2 (centres unmarked) [Cpd 114, 5-(5-(4-(8-methyl-8-azabicyclo[3.2.1]octan-3-yl)phenyl)-8-oxo-6-thioxo-5,7-diazaspiro[3.4]octan-7-yl)-3-(trifluoromethyl)picolinonitrile]	2690 nM	102%	> 15100 nM	-0.1%	1020 nM	101%	> 15100 nM	0.3%				
N#Cc1ncc(N2C(=O)C3(CCC3)N(c3ccc(C4=CC5CCC(C4)N5)cc3)C2=S)cc1C(F)(F)F (centres unmarked) [Cpd 116, 5-[8-[4-(8-azabicyclo[3.2.1]oct-3-en-3-yl)phenyl]-5-oxo-7-thioxo-6,8-diazaspiro[3.4]octan-6-yl]-3-(trifluoromethyl)pyridine-2-carbonitrile]		102%		0.5%		102%		0.8%	5.96	<4.82	6.01	<4.82
C#CCN1CC(Oc2ccc(N3C(=S)N(c4cnc(C#N)c(C(F)(F)F)c4)C(=O)C34CCC4)cc2)C1 [Cpd 117, 5-(8-oxo-5-(4-((1-(prop-2-yn-1-yl)azetidin-3-yl)oxy)phenyl)-6-thioxo-5,7-diazaspiro[3.4]octan-7-yl)-3-(trifluoromethyl)picolinonitrile]	97.7 nM	102%	> 15100 nM	0%	112 nM	99.4%	> 15100 nM	0.9%				
CC(C)(C)OC(=O)N1CCc2cc(N3C(=S)N(c4cnc(C#N)c(C(F)(F)F)c4)C(=O)C34CCC4)ccc2C1 [Cpd 118, tert-butyl 6-[6-[6-cyano-5-(trifluoromethyl)-3-pyridyl]-5-oxo-7-thioxo-6,8-diazaspiro[3.4]octan-8-yl]-3,4-dihydro-1H-isoquinoline-2-carboxylate]	490 nM	101%	> 15100 nM	0.1%	676 nM	93.7%	> 15100 nM	0.8%				
CC(=O)N1CCc2cc(N3C(=S)N(c4cnc(C#N)c(C(F)(F)F)c4)C(=O)C34CCC4)ccc2C1 [Cpd 120, 5-(5-(2-acetyl-1,2,3,4-tetrahydroisoquinolin-6-yl)-8-oxo-6-thioxo-5,7-diazaspiro[3.4]octan-7-yl)-3-(trifluoromethyl)picolinonitrile]	200 nM	100%	> 15100 nM	0.2%	339 nM	101%	> 15100 nM	1.1%				
CC(C)(C)OC(=O)N1CCC(n2cc3cc(N4C(=S)N(c5cnc(C#N)c(C(F)(F)F)c5)C(=O)C45CCC5)ccc3n2)CC1 [Cpd 121, tert-butyl 4-[5-[6-[6-cyano-5-(trifluoromethyl)-3-pyridyl]-5-oxo-7-thioxo-6,8-diazaspiro[3.4]octan-8-yl]indazol-2-yl]piperidine-1-carboxylate]	138 nM	97.9%	> 15100 nM	-0.1%	129 nM	99.8%	> 15100 nM	0.5%				
CC(C)(C)OC(=O)N1CCC(Cn2cc3cc(N4C(=S)N(c5cnc(C#N)c(C(F)(F)F)c5)C(=O)C45CCC5)ccc3n2)CC1 [Cpd 122, tert-Butyl 4-[[5-[6-[6-cyano-5-(trifluoromethyl)-3-pyridyl]-5-oxo-7-thioxo-6,8-diazaspiro[3.4]octan-8-yl]indazol-2-yl]methyl]piperidine-1-carboxylate]	282 nM	98%	> 15100 nM	0.3%	282 nM	96.4%	> 15100 nM	0.7%				

Source: patent US10981926B2 (Janssen Pharmaceutica NV, priority 2016, dated 2021)
